Measured values published in ChEMBL document CHEMBL4613208, “Isatin derivatives and their anti-bacterial activities” (Eur J Med Chem, 2019).
Converted amounts (≈) assume the structure as drawn.

Columns and labels:
Pseudomonas aeruginosa [1] = experiment: Antibacterial activity against Pseudomonas aeruginosa; assay type: functional, organism-based
Salmonella typhi = experiment: Antibacterial activity against Salmonella typhi; assay type: functional, Salmonella enterica subsp. enterica serovar Typhi; conditions: Salmonella enterica
Escherichia coli = experiment: Antibacterial activity against Escherichia coli assessed as zone of inhibition at 100 ug/ml; assay type: functional; conditions: for zone of inhibition at 100 µg/mL: read-out: IZ
Pseudomonas aeruginosa [2] = experiment: Antibacterial activity against Pseudomonas aeruginosa assessed as zone of inhibition at 100 ug/ml; assay type: functional; conditions: for zone of inhibition at 100 µg/mL: read-out: IZ
Staphylococcus aureus = experiment: Antibacterial activity against Staphylococcus aureus assessed as zone of inhibition at 100 ug/ml; assay type: functional; conditions: for zone of inhibition at 100 µg/mL: read-out: IZ
Bacillus cereus = experiment: Antibacterial activity against Bacillus cereus assessed as zone of inhibition at 100 ug/ml; assay type: functional; conditions: for zone of inhibition at 100 µg/mL: read-out: IZ

Row | Compound | MIC (Pseudomonas aeruginosa [1]) [nM] | MIC (Salmonella typhi) [nM] | zone of inhibition at 100 µg/mL (Escherichia coli) [mm] | zone of inhibition at 100 µg/mL (Pseudomonas aeruginosa [2]) [mm] | zone of inhibition at 100 µg/mL (Staphylococcus aureus) [mm] | zone of inhibition at 100 µg/mL (Bacillus cereus) [mm] | also measured
1 | Cc1ccc(C)c(/N=C2\C(=O)N(CC(=O)Nc3ccc(C)c(C)c3)c3ccccc32)c1 | 3 to 324 (≈ 1.23 to 133 ng/mL) | 3 to 324 (≈ 1.23 to 133 ng/mL) | – | – | – | – | –
2 | O=C(COc1ccc(N2C(=O)CSC2c2ccccc2)c2cccnc12)N/N=C1\C(=O)N(CN2CCCCC2)c2ccccc21 (configuration not stated) | – | – | 6 to 19 | 6 to 19 | 6 to 19 | 6 to 19 | –
3 | Cc1nc2ccccc2cc1C(=O)N/N=C1\C(=O)Nc2ccc(F)cc21 | – | – | 6 to 19 | 6 to 19 | 6 to 19 | 6 to 19 | –
4 | O=C(COc1ccc(N2C(=O)CSC2c2ccccc2)c2cccnc12)N/N=C1\C(=O)N(CN2CCOCC2)c2ccccc21 (configuration not stated) | – | – | 6 to 19 | 6 to 19 | 6 to 19 | 6 to 19 | –
5 | Cc1nc2ccccc2cc1C(=O)N/N=C1\C(=O)Nc2ccc([N+](=O)[O-])cc21 | – | – | 6 to 19 | 6 to 19 | 6 to 19 | 6 to 19 | –
6 | Cc1nc2ccccc2cc1C(=O)N/N=C1\C(=O)Nc2ccc(Cl)c(Cl)c21 | – | – | 6 to 19 | 6 to 19 | 6 to 19 | 6 to 19 | –
7 | O=C(COc1ccc(N2C(=O)C(Cl)C2c2ccc([N+](=O)[O-])cc2)c2cccnc12)N/N=C1\C(=O)N(CN2CCCCC2)c2ccccc21 (configuration not stated) | – | – | 6 to 19 | 6 to 19 | 6 to 19 | 6 to 19 | –
8 | Cc1ccc(C2SCC(=O)N2c2ccc(OCC(=O)N/N=C3\C(=O)N(CN4CCCCC4)c4ccccc43)c3ncccc23)cc1 (configuration not stated) | – | – | 6 to 19 | 6 to 19 | 6 to 19 | 6 to 19 | –
9 | Cc1ccccc1NC(=O)CN1C(=O)/C(=N\c2ccccc2)c2ccccc21 | 3 to 324 (≈ 1.11 to 120 ng/mL) | 3 to 324 (≈ 1.11 to 120 ng/mL) | – | – | – | – | –
10 | Cc1ccc(NC(=O)CN2C(=O)/C(=N\c3cc(C)ccc3C)c3ccccc32)cc1 | 3 to 324 (≈ 1.19 to 129 ng/mL) | 3 to 324 (≈ 1.19 to 129 ng/mL) | – | – | – | – | –
11 | Cc1nc2ccccc2cc1C(=O)N/N=C1\C(=O)Nc2c(Br)cc(Br)cc21 | – | – | 6 to 19 | 6 to 19 | 6 to 19 | 6 to 19 | –
12 | O=C(CN1C(=O)/C(=N\c2ccccc2)c2ccccc21)Nc1ccccc1 | 3 to 324 (≈ 1.07 to 115 ng/mL) | 3 to 324 (≈ 1.07 to 115 ng/mL) | – | – | – | – | –
13 | Cc1ccc(NC(=O)CN2C(=O)/C(=N\c3cc(C)ccc3C)c3ccccc32)c(C)c1 | 3 to 15 (≈ 1.23 to 6.17 ng/mL) | 3 to 15 (≈ 1.23 to 6.17 ng/mL) | – | – | – | – | –
14 | Cc1nc2ccccc2cc1C(=O)N/N=C1\C(=O)Nc2c(Br)cccc21 | – | – | 6 to 19 | 6 to 19 | 6 to 19 | 6 to 19 | –
15 | COc1ccc(C2SCC(=O)N2c2ccc(OCC(=O)N/N=C3\C(=O)N(CN4CCCCC4)c4ccccc43)c3ncccc23)cc1 (configuration not stated) | – | – | 6 to 19 | 6 to 19 | 6 to 19 | 6 to 19 | –
16 | GENTAMICIN | – | – | – | – | – | – | inhibition zone (IZ) (Escherichia coli): 19 to 27 mm; inhibition zone (IZ) (Pseudomonas aeruginosa [2]): 19 to 27 mm; inhibition zone (IZ) (Staphylococcus aureus): 19 to 27 mm; inhibition zone (IZ) (Bacillus cereus): 19 to 27 mm
17 | Cc1ccc(C)c(/N=C2\C(=O)N(CC(=O)Nc3ccccc3C)c3ccccc32)c1 | 3 to 324 (≈ 1.19 to 129 ng/mL) | 3 to 324 (≈ 1.19 to 129 ng/mL) | – | – | – | – | –
18 | COc1ccc(NC(=O)CN2C(=O)/C(=N\c3cc(C)ccc3C)c3ccccc32)cc1 | 3 to 324 (≈ 1.24 to 134 ng/mL) | 3 to 324 (≈ 1.24 to 134 ng/mL) | – | – | – | – | –
19 | O=C(COc1ccc(N2C(=O)C(Cl)C2c2ccc(Br)cc2)c2cccnc12)N/N=C1\C(=O)N(CN2CCCCC2)c2ccccc21 (configuration not stated) | – | – | 6 to 19 | 6 to 19 | 6 to 19 | 6 to 19 | –
20 | Cc1ccc(NC(=O)CN2C(=O)/C(=N\c3ccccc3)c3ccccc32)cc1 | 3 to 324 (≈ 1.11 to 120 ng/mL) | 3 to 324 (≈ 1.11 to 120 ng/mL) | – | – | – | – | –
21 | O=C(COc1ccc(N2C(=O)C(Cl)C2c2ccccc2)c2cccnc12)N/N=C1\C(=O)N(CN2CCCCC2)c2ccccc21 (configuration not stated) | – | – | 6 to 19 | 6 to 19 | 6 to 19 | 6 to 19 | –
22 | Cc1ccc(NC(=O)CN2C(=O)/C(=N\c3ccccc3)c3ccccc32)cc1C | 3 to 324 (≈ 1.15 to 124 ng/mL) | 3 to 324 (≈ 1.15 to 124 ng/mL) | – | – | – | – | –
23 | Cc1ccc(C2C(Cl)C(=O)N2c2ccc(OCC(=O)N/N=C3\C(=O)N(CN4CCCCC4)c4ccccc43)c3ncccc23)cc1 (configuration not stated) | – | – | 6 to 19 | 6 to 19 | 6 to 19 | 6 to 19 | –
24 | Cc1nc2ccccc2cc1C(=O)N/N=C1\C(=O)Nc2cccc(Cl)c21 | – | – | 6 to 19 | 6 to 19 | 6 to 19 | 6 to 19 | –
25 | Cc1nc2ccccc2cc1C(=O)N/N=C1\C(=O)Nc2ccccc21 | – | – | 6 to 19 | 6 to 19 | 6 to 19 | 6 to 19 | –
